# Measurements from patent publication US20260042731A1, “(2,4-DICHLOROPHENOXY)ACETIC ACID ANALOGS” (CORTEVA AGRISCIENCE LLC, priority 2022, published 2026).
# Read-outs that look alike come from different tables or passages of the source.
# Legend:
# [1] = Volatility of compounds measured by thermogravimetric analysis (TGA); type: physicochemical
# [2] = tested on: weeds (ABUTH, AMATA, AMBEL, CHEAL, ERICA); test: Postemergence herbicide evaluation, overall average % weed control across ABUTH, AMATA, AMBEL, CHEAL, ERICA; type: in vivo; conditions: post-emergence, average over the five weeds, read-out: Overall Ave % Weed Control; for pest or weed control at 280 g/ha: 280 g ae/ha; for pest or weed control at 560 g/ha: 560 g ae/ha
# [3] = tested on: Abutilon theophrasti (ABUTH), velvetleaf; test: Postemergence herbicide evaluation, growth of Abutilon theophrasti (ABUTH); type: in vivo; conditions: Abutilon theophrasti, post-emergence, percent reduction in plant size relative to untreated control, read-out: AVE. ABUTH; for pest or weed control at 280 g/ha: 280 g ae/ha; for pest or weed control at 560 g/ha: 560 g ae/ha
# [4] = tested on: glyphosate resistant Conyza canadensis (L.) (ERICA), horseweed; test: Postemergence herbicide evaluation, growth of Conyza canadensis (ERICA); type: in vivo; conditions: Erigeron canadensis, post-emergence, percent reduction in plant size relative to untreated control, read-out: Ave. ERICA; for pest or weed control at 280 g/ha: 280 g ae/ha; for pest or weed control at 560 g/ha: 560 g ae/ha
# [5] = tested on: Glycine max (Enlist E3 traited soybeans, GLXMA); conditions: Enlist E3 soybeans, percent reduction in plant size relative to untreated control
# [6] = tested on: Chenopodium album (CHEAL), common lambsquarters; test: Postemergence herbicide evaluation, growth of Chenopodium album (CHEAL); type: in vivo; conditions: Chenopodium album, post-emergence, percent reduction in plant size relative to untreated control, read-out: Ave. CHEAL; for pest or weed control at 280 g/ha: 280 g ae/ha; for pest or weed control at 560 g/ha: 560 g ae/ha
# [7] = tested on: Ambrosia artemisiifolia (AMBEL), common ragweed; test: Postemergence herbicide evaluation, growth of Ambrosia artemisiifolia (AMBEL); type: in vivo; conditions: Ambrosia artemisiifolia, post-emergence, percent reduction in plant size relative to untreated control, read-out: AVE. AMBEL; for pest or weed control at 280 g/ha: 280 g ae/ha; for pest or weed control at 560 g/ha: 560 g ae/ha
# [8] = tested on: Amaranthus rudis (AMATA), tall water hemp; test: Postemergence herbicide evaluation, growth of Amaranthus rudis (AMATA); type: in vivo; conditions: Amaranthus tuberculatus, post-emergence, percent reduction in plant size relative to untreated control, read-out: Ave. AMATA; for pest or weed control at 280 g/ha: 280 g ae/ha; for pest or weed control at 560 g/ha: 560 g ae/ha
smiles,measurement,setting,value
Cc1ccc(S(=O)(=O)NC(=O)COc2ccc(Cl)cc2Cl)cc1 [Compound D5],"TGA Data (rate of weight loss, volatility)",[1],0.02 µg/min
same,pest or weed control at 280 g/ha,"[2]; 168 h, 7 DAA",56%
same,pest or weed control at 560 g/ha,"[2]; 168 h, 7 DAA",61%
same,pest or weed control at 280 g/ha,"[2]; 336 h, 14 DAA",63%
same,pest or weed control at 560 g/ha,"[2]; 336 h, 14 DAA",70%
same,pest or weed control at 280 g/ha,"[2]; 504 h, 21 DAA",59%
same,pest or weed control at 560 g/ha,"[2]; 504 h, 21 DAA",63%
same,pest or weed control at 280 g/ha,"[3]; 168 h, 7 DAA",30%
same,pest or weed control at 560 g/ha,"[3]; 168 h, 7 DAA",40%
same,pest or weed control at 280 g/ha,"[3]; 336 h, 14 DAA",23%
same,pest or weed control at 560 g/ha,"[3]; 336 h, 14 DAA",35%
same,pest or weed control at 280 g/ha,"[3]; 504 h, 21 DAA",25%
same,pest or weed control at 560 g/ha,"[3]; 504 h, 21 DAA",25%
same,pest or weed control at 280 g/ha,"[4]; 168 h, 7 DAA",63%
same,pest or weed control at 560 g/ha,"[4]; 168 h, 7 DAA",53%
same,pest or weed control at 280 g/ha,"[4]; 336 h, 14 DAA",78%
same,pest or weed control at 560 g/ha,"[4]; 336 h, 14 DAA",75%
same,pest or weed control at 280 g/ha,"[4]; 504 h, 21 DAA",73%
same,pest or weed control at 560 g/ha,"[4]; 504 h, 21 DAA",68%
same,AVE. GLXMA,"[5]; 280 g ae/ha, 7 DAA",4%
same,AVE. GLXMA,"[5]; 280 g ae/ha, 14 DAA",2%
same,AVE. GLXMA,"[5]; 280 g ae/ha, 21 DAA",3%
same,AVE. GLXMA,"[5]; 560 g ae/ha, 7 DAA",9%
same,AVE. GLXMA,"[5]; 560 g ae/ha, 14 DAA",5%
same,AVE. GLXMA,"[5]; 560 g ae/ha, 21 DAA",5%
same,pest or weed control at 280 g/ha,"[6]; 168 h, 7 DAA",65%
same,pest or weed control at 560 g/ha,"[6]; 168 h, 7 DAA",73%
same,pest or weed control at 280 g/ha,"[6]; 336 h, 14 DAA",70%
same,pest or weed control at 560 g/ha,"[6]; 336 h, 14 DAA",73%
same,pest or weed control at 280 g/ha,"[6]; 504 h, 21 DAA",65%
same,pest or weed control at 560 g/ha,"[6]; 504 h, 21 DAA",68%
same,pest or weed control at 280 g/ha,"[7]; 168 h, 7 DAA",48%
same,pest or weed control at 560 g/ha,"[7]; 168 h, 7 DAA",65%
same,pest or weed control at 280 g/ha,"[7]; 336 h, 14 DAA",68%
same,pest or weed control at 560 g/ha,"[7]; 336 h, 14 DAA",90%
same,pest or weed control at 280 g/ha,"[7]; 504 h, 21 DAA",58%
same,pest or weed control at 560 g/ha,"[7]; 504 h, 21 DAA",85%
same,pest or weed control at 280 g/ha,"[8]; 168 h, 7 DAA",73%
same,pest or weed control at 560 g/ha,"[8]; 168 h, 7 DAA",73%
same,pest or weed control at 280 g/ha,"[8]; 336 h, 14 DAA",78%
same,pest or weed control at 560 g/ha,"[8]; 336 h, 14 DAA",75%
same,pest or weed control at 280 g/ha,"[8]; 504 h, 21 DAA",75%
same,pest or weed control at 560 g/ha,"[8]; 504 h, 21 DAA",73%
